According to the NIST ThermoML archive (doi:10.1016/j.fluid.2006.07.011):
± gives the expanded uncertainty stated by the source.

Columns and labels:
[1] = refractive index (Na D-line) (dimensionless); conditions: 293.15 K; 101.33 kPa; Liquid; Standard Abbe refractometry
[2] = 101.33 kPa, Liquid
[3] = Boiling temperature at pressure P; conditions: 101.33 kPa; Liquid; Distillation

| refractive index [1] | mass density ([2]; 298.15 K) | Boiling temperature at pressure P [3] | mass density ([2]; 293.15 K) | SMILES |
| --- | --- | --- | --- | --- |
| 1.4913 ± 0.0008 | 863.75 ± 0.85 kg/m3 | 152.39 ± 0.5 °C | – | CC(C)c1ccccc1 [isopropylbenzene] |
| 1.3711 ± 0.0008 | – | 109.90 ± 2 °C | 1218.5 ± 2.5 kg/m3 | O=CO [formic acid] |
| 1.3811 ± 0.0008 | 988 ± 0.53 kg/m3 | 141.00 ± 0.5 °C | – | CCC(=O)O [propanoic acid] |
| 1.3721 ± 0.0007 | 1044.3 ± 0.26 kg/m3 | 117.70 ± 0.5 °C | – | CC(=O)O [acetic acid] |
